Test results as given in ChEMBL document CHEMBL1201862, “PubChem BioAssay data set” (2004).
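Method: 48-hour compound exposure of cells in 96-well plates, five concentrations, linear interpolation of endpoints. At the GI50, growth is halved.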 Active and inactive are the calls of the source. No stated cut-off is given here; in the data, active = GI50 up to about 1.1 µM and inactive = higher.

Tests used:
Experiment in all cases: inhibition of tumour cell growth, NCI panel, 48 h
HCC 2998 = test system: HCC 2998
SW-620 = test system: SW-620
MOLT-4 = test system: MOLT-4
SF-295 = test system: SF-295
UACC-257 = test system: UACC-257
DLD-1 = test system: DLD-1
OVCAR-3 = test system: OVCAR-3
HCT-15 = test system: HCT-15
SK-MEL-2 = test system: SK-MEL-2
SF-539 = test system: SF-539
RPMI-8226 = test system: RPMI-8226
M14 = test system: M14
SR = test system: SR
NCI-H23 = test system: NCI-H23
SNB-19 = test system: SNB-19
786-0 = test system: 786-0
DMS-114 = test system: DMS-114
U-251 = test system: U-251
SK-MEL-28 = test system: SK-MEL-28
DMS-273 = test system: DMS-273
SK-OV-3 = test system: SK-OV-3
SNB-75 = test system: SNB-75
SF-268 = test system: SF-268
RXF 631 = test system: RXF 631
IGROV-1 = test system: IGROV-1
OVCAR-4 = test system: OVCAR-4
CAKI-1 = test system: CAKI-1
HOP-62 = test system: HOP-62
UO-31 = test system: UO-31
UACC-62 = test system: UACC-62
A498 = test system: A498
NCI-H522 = test system: NCI-H522
LXFL 529 = test system: LXFL 529
SN12C = test system: SN12C
Malme-3M = test system: Malme-3M
HT-29 = test system: HT-29
ACHN = test system: ACHN
KM-20L2 = test system: KM-20L2
OVCAR-5 = test system: OVCAR-5
CCRF-CEM = test system: CCRF-CEM
SNB-78 = test system: SNB-78
K562 = test system: K562
NCI-H226 = test system: NCI-H226
SK-MEL-5 = test system: SK-MEL-5
COLO 205 = test system: COLO 205
HOP-18 = test system: HOP-18
NCI-H460 = test system: NCI-H460
KM12 = test system: KM12
HL-60 = test system: HL-60
LOX IMVI = test system: LOX IMVI
OVCAR-8 = test system: OVCAR-8
TK-10 = test system: TK-10
A549 = test system: A549
HCT-116 = test system: HCT-116
HOP-92 = test system: HOP-92
EKVX = test system: EKVX

In the case of `Cc1ccccc1N1C(=O)/C(=C/c2ccc(N(CCC#N)CCC#N)cc2)N=C1c1cc([N+](=O)[O-])ccc1Cl`, the GI50 (HCC 2998) is reported as > 100 µM (inactive), the GI50 (SW-620) is reported as > 100 µM (inactive) and the GI50 (MOLT-4) is reported as 25.5 µM (inactive). For the same compound, the GI50 (SF-295) was 31 µM (inactive), the GI50 (UACC-257) was > 100 µM (inactive) and the GI50 (DLD-1) was 79.1 µM (inactive). For the same compound, the GI50 (OVCAR-3) was 59.3 µM (inactive), the GI50 (HCT-15) was over 100 µM and the GI50 (SK-MEL-2) was > 100 µM (inactive). The GI50 (SF-539) was > 100 µM (inactive), the GI50 (RPMI-8226) was 21 µM (inactive) and the GI50 (M14) was > 100 µM (inactive). The GI50 (SR) was 7.19 µM (inactive), the GI50 (NCI-H23) was > 100 µM (inactive) and the GI50 (SNB-19) was > 100 µM (inactive). The GI50 (786-0) was 84.5 µM (inactive), the GI50 (DMS-114) was > 100 µM (inactive) and the GI50 (U-251) was 36 µM (inactive). For the same compound, the GI50 (SK-MEL-28) was > 100 µM (inactive), the GI50 (DMS-273) was 78.9 µM (inactive) and the GI50 (SK-OV-3) was > 100 µM (inactive). The GI50 (SNB-75) was > 100 µM (inactive), the GI50 (SF-268) was > 100 µM (inactive) and the GI50 (RXF 631) was > 100 µM (inactive). For the same compound, the GI50 (IGROV-1) was > 100 µM (inactive), the GI50 (OVCAR-4) was > 100 µM (inactive) and the GI50 (CAKI-1) was > 100 µM (inactive). For the same compound, the GI50 (HOP-62) was 25.6 µM (inactive), the GI50 (UO-31) was > 100 µM (inactive) and the GI50 (UACC-62) was 22.5 µM (inactive). The GI50 (A498) was > 100 µM (inactive), the GI50 (NCI-H522) was > 100 µM (inactive) and the GI50 (LXFL 529) was 96.8 µM (inactive). The GI50 (SN12C) was > 100 µM (inactive), the GI50 (Malme-3M) was > 100 µM (inactive) and the GI50 (HT-29) was > 100 µM (inactive). For the same compound, the GI50 (ACHN) was > 100 µM (inactive), the GI50 (KM-20L2) was > 100 µM (inactive) and the GI50 (OVCAR-5) was 42.1 µM (inactive). For the same compound, the GI50 (CCRF-CEM) was 48.6 µM (inactive), the GI50 (SNB-78) was > 100 µM (inactive) and the GI50 (K562) was 35.8 µM (inactive). For the same compound, the GI50 (NCI-H226) was > 100 µM (inactive), the GI50 (SK-MEL-5) was 38.5 µM (inactive) and the GI50 (COLO 205) was 18.8 µM (inactive). The GI50 (HOP-18) was > 100 µM (inactive), the GI50 (NCI-H460) was > 100 µM (inactive) and the GI50 (KM12) was > 100 µM (inactive). For the same compound, the GI50 (HL-60) was 35 µM (inactive).

For `COC(=O)C1(O)CC(=O)CCC1c1ccc(OC)cc1` (centres undefined), the GI50 (HCC 2998) was > 100 µM (inactive), the GI50 (SW-620) was > 100 µM (inactive) and the GI50 (MOLT-4) was > 100 µM (inactive). For the same compound, the GI50 (SF-295) was > 100 µM (inactive), the GI50 (UACC-257) was > 100 µM (inactive) and the GI50 (LOX IMVI) was > 100 µM (inactive). For the same compound, the GI50 (DLD-1) was > 100 µM (inactive), the GI50 (OVCAR-3) was > 100 µM (inactive) and the GI50 (HCT-15) was over 100 µM. The GI50 (SK-MEL-2) was > 100 µM (inactive), the GI50 (SF-539) was > 100 µM (inactive) and the GI50 (RPMI-8226) was > 100 µM (inactive). For the same compound, the GI50 (M14) was > 100 µM (inactive), the GI50 (SR) was > 100 µM (inactive) and the GI50 (NCI-H23) was > 100 µM (inactive). For the same compound, the GI50 (SNB-19) was > 100 µM (inactive), the GI50 (OVCAR-8) was > 100 µM (inactive) and the GI50 (786-0) was > 100 µM (inactive). For the same compound, the GI50 (DMS-114) was > 100 µM (inactive), the GI50 (U-251) was > 100 µM (inactive) and the GI50 (SK-MEL-28) was > 100 µM (inactive). The GI50 (DMS-273) was > 100 µM (inactive), the GI50 (SK-OV-3) was > 100 µM (inactive) and the GI50 (TK-10) was > 100 µM (inactive). For the same compound, the GI50 (SNB-75) was > 100 µM (inactive), the GI50 (A549) was > 100 µM (inactive) and the GI50 (HCT-116) was > 100 µM (inactive). For the same compound, the GI50 (SF-268) was > 100 µM (inactive), the GI50 (HOP-92) was > 100 µM (inactive) and the GI50 (RXF 631) was > 100 µM (inactive). For the same compound, the GI50 (IGROV-1) was > 100 µM (inactive), the GI50 (OVCAR-4) was > 100 µM (inactive) and the GI50 (CAKI-1) was > 100 µM (inactive). For the same compound, the GI50 (HOP-62) was > 100 µM (inactive), the GI50 (UO-31) was > 100 µM (inactive) and the GI50 (UACC-62) was > 100 µM (inactive). The GI50 (A498) was > 100 µM (inactive), the GI50 (NCI-H522) was > 100 µM (inactive) and the GI50 (EKVX) was > 100 µM (inactive). The GI50 (SN12C) was > 100 µM (inactive), the GI50 (Malme-3M) was > 100 µM (inactive) and the GI50 (HT-29) was > 100 µM (inactive). For the same compound, the GI50 (ACHN) was > 100 µM (inactive), the GI50 (KM-20L2) was > 100 µM (inactive) and the GI50 (OVCAR-5) was > 100 µM (inactive). For the same compound, the GI50 (CCRF-CEM) was > 100 µM (inactive), the GI50 (SNB-78) was > 100 µM (inactive) and the GI50 (K562) was > 100 µM (inactive). The GI50 (NCI-H226) was > 100 µM (inactive), the GI50 (SK-MEL-5) was > 100 µM (inactive) and the GI50 (COLO 205) was > 100 µM (inactive). For the same compound, the GI50 (HOP-18) was > 100 µM (inactive), the GI50 (NCI-H460) was > 100 µM (inactive) and the GI50 (KM12) was > 100 µM (inactive). The GI50 (HL-60) was > 100 µM (inactive).
